From EP3888661A1, “COMPOSITIONS COMPRISING 2 -FUCOSYLLACTOSE TO PREVENT VIRAL INFECTIONS” (FrieslandCampina Nederland B.V., priority 2020, dated 2021)

Tests used:
[1] = cited from earlier work
[2] = test system: anaerobic microbiota from human origin; assay: TIM-2 in vitro fermentation model of the human colon, SCFA/acetate production
Text: The in vitro fermentation studies were done using the TIM-2 model. This is a validated, dynamic, computer-controlled model that simulates the human colon, mimicking body temperature, lumen pH, absorption of water and microbial metabolites through a semipermeable membrane inside the model, mixing and transporting the intestinal contents with peristaltic movements, using an anaerobic microbiota from human origin, it corresponds basically to the model as described in Minekus, M., etal. Appl. Microbiol. Biotechnol. 1999 53, 108-114. doi: 10.1007/ s002530051622 and Kortman et al., Frontiers in Microbiology 2016, 6, 1481. Characteristics of the movements of the contents in the TIM-2 system was simulated using an increase of the pH and peristaltic movements of the contents in the system using peristaltic pumps as described in Minekus, M (1998. Development and validation of a dynamic model of the gastrointestinal tract. PhD thesis, Delft University of Technology, The Netherlands).
SCFA analysis was performed at Brightlabs B.V., Venlo, The Netherlands), according to (Sáyago-Ayerdi SG, et al. Food Research International, E-pub date 13 December 2017; Sayago Ayerdi et al Food Research International 118 (2019) 89-95). […]
Samples (1 mL) were taken for Short Chain Fatty Acid (SCFA) analysis after 1, 2, 4, 6, 8 and 24 h after test product insertion; cumulative absolute amounts of SCFA were determined. […]

## C[C@@H]1O[C@@H](O[C@H]2[C@H](O[C@H]3[C@H](O)[C@@H](O)C(O)O[C@@H]3CO)O[C@H](CO)[C@H](O)[C@@H]2O)[C@@H](O)[C@H](O)[C@@H]1O (stereo partly drawn) [2'-FL, 2'-Fucosyllactose]
[1]
  daily dosage tested as safe: 20 g
[2]; 7.5 gram test product as single shot, cumulative acetate produced between 8 and 24 hours after insertion, representing the distal colon, pooled fecal microbiota of 20 healthy subjects
  acetate production: 17 mmol
[2]; fecal microbiota samples of lean and of obese subjects in the TIM-2 model system
  acetate production: An increase in the acetate production was observed
